From patent US7759345B2, “Antitumoral derivatives of ET-743” (priority 2001, dated 2010)

Experiments:
Assay type in all cases: cell-based
Conditions in all cases: SRB, 48 hours exposure
SK-OV-3 = assay: Inhibition of cells growth by colorimetric assay (SRB), SK-OV-3
Description: (§1) 2°.—Inhibition of Cells Growth by Colorimetric Assay.
(§2) A colorimetric type of assay, using sulforhodamine B (SRB) reaction has been adapted for a quantitative measurement of cell growth and viability [following the technique described by Philip Skehan, et al. (1990), New colorimetric cytotoxicity assay for anticancer drug screening, J. Natl. Cancer Inst., 82:1107-1112]
(§3) This form of the assay employs 96 well cell culture microplates of 9 mm diameter (Faircloth, 1988; Mosmann, 1983). Most of the cell lines are obtained from American Type Culture Collection (ATCC) derived from different human cancer types.
(§4) Cells are maintained in RPMI 1640 10% FBS, supplemented with 0.1 g/l penicillin and 0.1 g/l streptomycin sulfate and then incubated at 37° C., 5% CO2 and 98% humidity. For the experiments, cells were harvested from subconfluent cultures using trypsin and resuspended in fresh medium before plating.
(§5) Cells are seeded in 96 well microtiter plates, at 5×10^3 cells per well in aliquots of 195 μl medium, and they are allowed to attach to the plate surface by growing in drug free medium for 18 hours. Afterward, samples are added in aliquots of 5 μl in a ranging from 10 to 10^−8 μg/ml, dissolved in DMSO/EtOH/PBS (0.5:0.5:99). After 48 hours exposure, the antitumor effect are measured by the SRB methodology: cells are fixed by adding 50 μl of cold 50% (wt/vol) trichloroacetic acid (TCA) and incubating for 60 minutes at 4° C. Plates are washed with deionized water and dried. One hundred μl of SRB solution (0.4% wt/vol in 1% acetic acid) is added to each microtiter well and incubated for 10 minutes at room temperature. Unbound SRB is removed by washing with 1% acetic acid. Plates are air dried and bound stain is solubilized with Tris buffer. Optical densities are read on a automated spectrophotometric plate reader at a single wavelength of 490 nm.
(§6) The values for mean+/−SD of data from triplicate wells are calculated. Some parameters for cellular responses can be calculated: GI=growth inhibition, TGI=total growth inhibition (cytostatic effect) and LC=cell killing (cytotoxic effect).
(§7) Obtained results may predict the usefulness of a certain drug as a potential cancer treatment. For this technique, compounds which show GI50 values smaller than 10 μg/ml are selected to continue with further studies. GI50's data allow to predict that not only could a drug be cystostatic, but also it could have a potential in terms of tumor reduction.

PANC-1 = assay: Inhibition of cells growth by colorimetric assay (SRB), PANC-1
Description: as §1, §2, §3, §4, §5, §6, §7

IGROV-ET = assay: Inhibition of cells growth by colorimetric assay (SRB), IGROV-ET
Description: as §1, §2, §3, §4, §5, §6, §7

HT-29 = assay: Inhibition of cells growth by colorimetric assay (SRB), HT-29
Procedure, shortened: (§8)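 First, cells were plated at 5×10^3 per well and left 18 h to attach. Next, compound was added over 10 to 10^−8 μg/ml for 48 h. Finally, cells were TCA-fixed, SRB-stained and absorbance read at 490 nm.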

LoVo-Dox = assay: Inhibition of cells growth by colorimetric assay (SRB), LoVo-Dox
Description: as §1, §2, §3, §4, §5, §6, §7

A-549 = assay: Inhibition of cells growth by colorimetric assay (SRB), A-549
Procedure, shortened: as §8

LNCaP = assay: Inhibition of cells growth by colorimetric assay (SRB), LNCaP
Description: as §1, §2, §3, §4, §5, §6, §7

LoVo = assay: Inhibition of cells growth by colorimetric assay (SRB), LoVo
Description: as §1, §2, §3, §4, §5, §6, §7

SK-MEL-28 = assay: Inhibition of cells growth by colorimetric assay (SRB), SK-MEL-28
Description: as §1, §2, §3, §4, §5, §6, §7

IGROV-1 = assay: Inhibition of cells growth by colorimetric assay (SRB), IGROV-1
Description: as §1, §2, §3, §4, §5, §6, §7

K-562 = assay: Inhibition of cells growth by colorimetric assay (SRB), K-562
Description: as §1, §2, §3, §4, §5, §6, §7

DU-145 = assay: Inhibition of cells growth by colorimetric assay (SRB), DU-145
Description: as §1, §2, §3, §4, §5, §6, §7

COc1cc2c(cc1O)CCN[C@]21CS[C@@H]2c3c(OC(C)=O)c(C)c4c(c3[C@H](COC1=O)N1C2[C@H]2c3c(cc(C)c(OC)c3OC(C)C)C[C@@H]([C@@H]1O)N2C)OCO4 (stereo partly drawn) [Compound 102]
GI50 (SK-OV-3; Homo sapiens, SK-OV-3, 48 h, SK-OV3, read-out: SK-OV3 GI50): 0.0413 µM
LC50 (SK-OV-3; Homo sapiens, SK-OV-3, 48 h, read-out: SK-OV3 LC50, SK-OV3): 0.124 µM
SK-OV3 TGI (SK-OV-3; SK-OV3): 1.10E-07
GI50 (PANC-1; Homo sapiens, PANC-1, 48 h, PANC-1, read-out: PANC-1 GI50): 0.0554 µM
LC50 (concentration for 50% net cell kill) (PANC-1; Homo sapiens, PANC-1, 48 h, read-out: PANC-1 LC50, PANC-1): 12.4 µM
PANC-1 TGI (PANC-1; PANC-1): 1.39E-07
GI50 (IGROV-ET; Homo sapiens, 48 h, IGROV-ET, read-out: IGROV-ET GI50): 0.101 µM
CC50 (IGROV-ET; Homo sapiens, 48 h, read-out: IGROV-ET LC50, IGROV-ET): 7.81 µM
IGROV-ET TGI (IGROV-ET; IGROV-ET): 1.53E-06
HT-29 TGI (HT-29; HT-29): 2.19E-06
GI50 (HT-29; Homo sapiens, HT-29, 48 h, HT-29, read-out: HT-29 GI50): 0.087 µM
LC50 (concentration for 50% cell killing) (HT-29; Homo sapiens, HT-29, 48 h, read-out: HT-29 LC50, HT-29): 12.4 µM
GI50 (LoVo-Dox; Homo sapiens, 48 h, LOVO-DOX, read-out: LOVO-DOX GI50): 0.417 µM
CC50 (LoVo-Dox; Homo sapiens, 48 h, read-out: LOVO-DOX LC50, LOVO-DOX): 12.4 µM
LOVO-DOX TGI (LoVo-Dox; LOVO-DOX): 1.02E-06
A-549 TGI (A-549; A-549): 4.24E-07
GI50 (A-549; Homo sapiens, A549, 48 h, A-549, read-out: A-549 GI50): 0.152 µM
LC50 (concentration for 50% cell killing) (A-549; Homo sapiens, A549, 48 h, read-out: A-549 LC50, A-549): 1.19 µM
GI50 (LNCaP; Homo sapiens, LNCaP, 48 h, read-out: LNCAP GI50, LNCAP): 0.0175 µM
CC50 (LNCaP; Homo sapiens, LNCaP, 48 h, read-out: LNCAP LC50, LNCAP): 0.0954 µM
LNCAP TGI (LNCaP; LNCAP): 4.09E-08
GI50 (LoVo; Homo sapiens, LoVo, 48 h, LOVO, read-out: LOVO GI50): 0.0698 µM
LC50 (concentration for 50% cell killing) (LoVo; Homo sapiens, LoVo, 48 h, read-out: LOVO LC50, LOVO): 12.4 µM
LOVO TGI (LoVo; LOVO): 4.58E-07
GI50 (SK-MEL-28; Homo sapiens, SK-MEL-28, 48 h, MEL-28, read-out: MEL-28 GI50): 0.0379 µM
CC50 (SK-MEL-28; Homo sapiens, SK-MEL-28, 48 h, read-out: MEL-28 LC50, MEL-28): 0.128 µM
MEL-28 TGI (SK-MEL-28; MEL-28): 6.89E-08
GI50 (IGROV-1; Homo sapiens, IGROV-1, 48 h, IGROV, read-out: IGROV GI50): 0.0353 µM
CC50 (IGROV-1; Homo sapiens, IGROV-1, 48 h, read-out: IGROV LC50, IGROV): 0.134 µM
IGROV TGI (IGROV-1; IGROV): 7.63E-08
GI50 (K-562; Homo sapiens, K562, 48 h, K-562, read-out: K-562 GI50): 0.0102 µM
LC50 (50% cell killing) (K-562; Homo sapiens, K562, 48 h, read-out: K-562 LC50, K-562): 0.126 µM
K-562 TGI (K-562; K-562): 4.35E-08
DU-145 TGI (DU-145; DU-145): 7.84E-08
GI50 (DU-145; Homo sapiens, DU-145, 48 h, DU-145, read-out: DU-145 GI50): 0.0398 µM
CC50 (DU-145; Homo sapiens, DU-145, 48 h, read-out: DU-145 LC50, DU-145): 0.124 µM
